Measurements taken from patent publication US11685732B2, “MYST family histone acetyltransferase inhibitors” (Epizyme, Inc., priority 2017, dated 2023).

Assays:
[1] = target: KAT-7 (Homo sapiens (Human), UniProt O95251); assay: KAT-7 biochemical inhibition assay (SAMDI mass spectrometry)
Method in brief: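 Read-out was SAMDI time-of-flight MS of formic acid-quenched reactions (0.5% final). Compound dilutions (2% DMSO final) were pre-incubated with 6 nM KAT-7 in 50 mM Tris pH 8.0 with 1 mM DTT, then given 1 μM peptide substrate and 2 μM acetyl-CoA for 120 min at 25 °C. IC50 values were derived.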

[2] = target: KAT-6A (Homo sapiens (Human), UniProt Q92794); assay: KAT-6A biochemical inhibition assay (SAMDI mass spectrometry)
KAT-6A, sequence (Q92794 other isoform, or with tags, fused parts or gaps): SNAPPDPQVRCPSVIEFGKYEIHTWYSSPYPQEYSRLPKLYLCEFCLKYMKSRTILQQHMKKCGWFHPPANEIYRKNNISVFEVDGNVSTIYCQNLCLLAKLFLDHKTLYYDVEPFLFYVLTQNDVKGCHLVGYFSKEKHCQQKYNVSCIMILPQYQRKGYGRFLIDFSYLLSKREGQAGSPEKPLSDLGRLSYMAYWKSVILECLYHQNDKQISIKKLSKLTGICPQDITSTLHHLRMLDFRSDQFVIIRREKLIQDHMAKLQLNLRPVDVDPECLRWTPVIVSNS
Method in brief: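 IC50 values came from SAMDI time-of-flight mass spectrometry after formic acid quench (0.5% final). Acetylation ran 90 min at 25 °C with 1 μM acetyl coenzyme A and 1 μM peptide substrate, following compound pre-incubation with 12.5 nM KAT-6A in Tris buffer pH 8.0 containing DTT, 2% DMSO final.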

[3] = target: KAT-5 (Homo sapiens (Human), UniProt Q92993); assay: KAT-5 biochemical inhibition assay (SAMDI mass spectrometry)
KAT-5, sequence (Q92993 other isoform, or with tags, fused parts or gaps): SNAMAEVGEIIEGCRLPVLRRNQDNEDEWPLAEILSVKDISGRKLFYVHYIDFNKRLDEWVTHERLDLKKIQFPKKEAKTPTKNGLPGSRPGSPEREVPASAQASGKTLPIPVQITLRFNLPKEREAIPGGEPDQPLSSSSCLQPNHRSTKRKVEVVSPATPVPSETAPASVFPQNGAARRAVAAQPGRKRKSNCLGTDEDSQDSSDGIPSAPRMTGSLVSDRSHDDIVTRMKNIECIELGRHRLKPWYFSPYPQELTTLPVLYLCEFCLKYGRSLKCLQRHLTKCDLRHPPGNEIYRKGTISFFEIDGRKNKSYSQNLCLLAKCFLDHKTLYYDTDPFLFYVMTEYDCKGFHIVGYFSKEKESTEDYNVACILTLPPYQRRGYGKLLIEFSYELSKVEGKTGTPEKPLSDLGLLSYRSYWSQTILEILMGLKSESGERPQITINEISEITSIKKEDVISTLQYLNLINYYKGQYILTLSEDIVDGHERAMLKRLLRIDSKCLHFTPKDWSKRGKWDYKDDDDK
Method in brief: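 Acetylation of 1 μM peptide by 9 nM enzyme with 0.5 μM acetyl-CoA (final) was run 90 min at 25° C in Tris pH 8.0 buffer with DTT, after compound preincubation at 2% DMSO. Formic acid stopped the reaction, and product was quantified by SAMDI mass spectrometry to derive IC50.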

[4] = target: KAT-8 (Homo sapiens (Human), UniProt Q9H7Z6); assay: KAT-8 biochemical inhibition assay (SAMDI mass spectrometry)
KAT-8, sequence (Q9H7Z6 other isoform, or with tags, fused parts or gaps): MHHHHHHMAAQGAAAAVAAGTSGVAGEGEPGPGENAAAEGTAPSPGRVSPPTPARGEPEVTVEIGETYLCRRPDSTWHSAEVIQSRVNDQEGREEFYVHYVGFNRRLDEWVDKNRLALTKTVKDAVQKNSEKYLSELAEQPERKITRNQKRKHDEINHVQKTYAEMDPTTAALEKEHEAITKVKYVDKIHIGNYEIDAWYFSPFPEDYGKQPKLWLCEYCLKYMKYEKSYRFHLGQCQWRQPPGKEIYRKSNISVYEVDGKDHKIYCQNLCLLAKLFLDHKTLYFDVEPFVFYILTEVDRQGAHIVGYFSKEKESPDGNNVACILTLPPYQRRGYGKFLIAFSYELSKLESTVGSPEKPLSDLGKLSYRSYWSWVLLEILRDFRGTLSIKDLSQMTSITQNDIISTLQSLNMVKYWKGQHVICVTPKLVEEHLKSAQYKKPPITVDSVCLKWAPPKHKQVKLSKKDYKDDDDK
Method in brief: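 Acetylation of 1 μM peptide substrate with 5 μM acetyl-CoA by 12.5 nM enzyme, compound pre-incubated, 2% DMSO, Tris pH 8.0 buffer with DTT, 25 °C for 90 min. Quench with 0.5% formic acid; product read by SAMDI mass spectrometry to give IC50.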

KAT-7, sequence (O95251 other isoform, or with tags, fused parts or gaps): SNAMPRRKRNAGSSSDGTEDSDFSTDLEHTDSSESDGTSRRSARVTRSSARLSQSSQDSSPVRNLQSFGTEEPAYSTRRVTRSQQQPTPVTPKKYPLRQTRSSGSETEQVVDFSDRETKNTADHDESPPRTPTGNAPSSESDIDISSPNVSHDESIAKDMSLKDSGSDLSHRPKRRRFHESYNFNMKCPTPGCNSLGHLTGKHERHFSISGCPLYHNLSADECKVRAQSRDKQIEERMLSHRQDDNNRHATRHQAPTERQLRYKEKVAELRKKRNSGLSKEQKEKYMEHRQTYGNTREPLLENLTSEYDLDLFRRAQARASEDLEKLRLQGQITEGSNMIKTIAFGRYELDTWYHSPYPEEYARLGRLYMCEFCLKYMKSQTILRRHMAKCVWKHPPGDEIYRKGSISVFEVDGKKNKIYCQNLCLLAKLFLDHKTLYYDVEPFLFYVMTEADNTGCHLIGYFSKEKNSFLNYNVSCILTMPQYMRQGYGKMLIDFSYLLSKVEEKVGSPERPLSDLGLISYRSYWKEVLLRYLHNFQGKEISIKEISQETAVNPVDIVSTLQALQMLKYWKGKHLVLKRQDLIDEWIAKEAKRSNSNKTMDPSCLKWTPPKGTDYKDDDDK

| Compound | IC50 [1] | IC50 [2] | IC50 [3] | IC50 [4] |
| --- | --- | --- | --- | --- |
| O=C(NNS(=O)(=O)CC1CCCCC1)c1cc(-n2cccn2)cc(Cl)c1F [Compound I-34] | 10 to 50 µM | < 10 µM | < 10 µM | > 100 µM |
| O=C(NNS(=O)(=O)CC1CCCCC1)c1cc(-n2ccnn2)cc(Cl)c1F [Compound I-87] | 10 to 50 µM | < 10 µM | 10 to 50 µM | 10 to 50 µM |
| CCn1cc(S(=O)(=O)NNC(=O)c2cc(-c3cn(C)cn3)cc(Cl)c2F)cn1 [Compound I-52] | < 10 µM | 10 to 50 µM | 10 to 50 µM | > 100 µM |
| COc1ccc(CNC(=O)N2CCCC(CS(=O)(=O)NNC(=O)c3cc(-c4cn(C)cn4)cc(Cl)c3F)C2)cc1 (centres unmarked) [Compound I-214] | < 10 µM | < 10 µM | < 10 µM | 10 to 50 µM |
| Cc1cc(-c2cn(C)cn2)cc(C(=O)NNS(=O)(=O)CC2CCCCC2)c1C [Compound I-145] | 10 to 50 µM | > 100 µM | > 100 µM | > 100 µM |
| Cn1cc(-c2cc(Cl)c(F)c(C(=O)NNS(=O)(=O)CC3CCOCC3)c2)cn1 [Compound I-16] | < 10 µM | > 100 µM | 10 to 50 µM | > 100 µM |
| Cn1cnc(-c2cc(Cl)c(F)c(C(=O)NNS(=O)(=O)C3CCCCC3)c2)c1 [Compound I-2] | < 10 µM | < 10 µM | < 10 µM | 10 to 50 µM |
| Cc1cc(-c2cn(C)cn2)cc(C(=O)NNS(=O)(=O)C2CCCCC2)c1F [Compound I-127] | < 10 µM | 10 to 50 µM | < 10 µM | > 100 µM |
| Cn1cnc(-c2cc(Cl)c(F)c(C(=O)NNS(=O)(=O)C[C@H]3CCC[C@@H](OCc4ccccc4)C3)c2)c1 [Compound I-290] | < 10 µM | 10 to 50 µM | < 10 µM | 10 to 50 µM |
| Cn1cnc(-c2cc(Cl)c(F)c(C(=O)NNS(=O)(=O)C3CCOCC3)c2)c1 [Compound I-9] | < 10 µM | 10 to 50 µM | 10 to 50 µM | > 100 µM |
| Cc1ncc(-c2cc(Cl)c(F)c(C(=O)NNS(=O)(=O)CC3CCOCC3)c2)[nH]1 [Compound I-81] | 10 to 50 µM | < 10 µM | < 10 µM | 10 to 50 µM |
| Cn1cnc(-c2cc(Cl)c(F)c(C(=O)NNS(=O)(=O)CC3(C)CCOCC3)c2)c1 [Compound I-239] | < 10 µM | 10 to 50 µM | < 10 µM | 10 to 50 µM |
| Cn1cnc(-c2cc(Cl)c(F)c(C(=O)NNS(=O)(=O)c3ccccc3)c2)c1 [Compound I-110] | < 10 µM | < 10 µM | < 10 µM | 10 to 50 µM |

The remaining lines, values ahead:

| IC50 [1] | IC50 [2] | IC50 [3] | IC50 [4] | Compound |
| --- | --- | --- | --- | --- |
| < 10 µM | < 10 µM | < 10 µM | 10 to 50 µM | Cn1cnc(-c2cc(Cl)c(F)c(C(=O)NNS(=O)(=O)CC3CCC(NC(=O)N4CCC4)C3)c2)c1 (centres unmarked) [Compound I-341] |
| < 10 µM | < 10 µM | < 10 µM | 10 to 50 µM | CN1CCN([C@H]2C[C@@H](CS(=O)(=O)NNC(=O)c3cc(-c4cn(C)cn4)cc(Cl)c3F)C2)C1=O [Compound I-325] |
| < 10 µM | 10 to 50 µM | 10 to 50 µM | 10 to 50 µM | CCNC(=O)N1CC(CS(=O)(=O)NNC(=O)c2cc(-c3cn(C)cn3)cc(Cl)c2F)C1 [Compound I-168] |
| < 10 µM | < 10 µM | < 10 µM | 10 to 50 µM | CCC(=O)N[C@H]1CC[C@@H](CS(=O)(=O)NNC(=O)c2cc(-c3cn(C)cn3)cc(Cl)c2F)CC1 [Compound I-221] |
| < 10 µM | 10 to 50 µM | 10 to 50 µM | 10 to 50 µM | CN[C@H]1CC[C@@H](CS(=O)(=O)NNC(=O)c2cc(-c3cn(C)cn3)cc(Cl)c2F)CC1 [Compound I-364] |
| < 10 µM | 10 to 50 µM | 10 to 50 µM | 10 to 50 µM | Cn1cnc(-c2cc(Cl)c(F)c(C(=O)NNS(=O)(=O)CC3CCC(N)C3)c2)c1 (centres unmarked) [Compound I-339] |
| < 10 µM | < 10 µM | < 10 µM | 10 to 50 µM | CNC(=S)N1CC[C@@H](CS(=O)(=O)NNC(=O)c2cc(-c3cn(C)cn3)cc(Cl)c2F)C1 [Compound I-183] |
| < 10 µM | < 10 µM | < 10 µM | 10 to 50 µM | Cn1cnc(-c2cc(Cl)c(F)c(C(=O)NNS(=O)(=O)C[C@H]3C[C@@H](NC(=O)OC(C)(C)C)C3)c2)c1 [Compound I-114] |
| < 10 µM | 10 to 50 µM | 10 to 50 µM | 10 to 50 µM | Cn1cnc(-c2cc(Cl)c(F)c(C(=O)NNS(=O)(=O)C[C@H]3CCNC3)c2)c1 [Compound I-121] |
| < 10 µM | < 10 µM | 10 to 50 µM | 10 to 50 µM | Cn1cnc(-c2cc(Cl)c(F)c(C(=O)NNS(=O)(=O)CC3CN(C(=O)N4CCC4)C3)c2)c1 [Compound I-169] |
| < 10 µM | < 10 µM | < 10 µM | 10 to 50 µM | Cn1cnc(-c2cc(Cl)c(F)c(C(=O)NNS(=O)(=O)CCC3CCOCC3)c2)c1 [Compound I-244] |
| < 10 µM | < 10 µM | < 10 µM | 10 to 50 µM | CN1CCN([C@H]2CC[C@H](CS(=O)(=O)NNC(=O)c3cc(-c4cn(C)cn4)cc(Cl)c3F)CC2)C1=O [Compound I-319] |
| < 10 µM | < 10 µM | < 10 µM | 10 to 50 µM | Cn1cnc(-c2cc(Cl)c(F)c(C(=O)NNS(=O)(=O)CC3CCN(S(C)(=O)=O)C3)c2)c1 (centres unmarked) [Compound I-63] |
